The source of these data is patent US6924400B2, “Triaromatic vitamin D analogues” (Galderma Research & Development, SNC, priority 2001, dated 2005).

pIC50: −log10 of the molar value.

The test system of one assay is HL60 cells. The assay is described as follows: Activity on the differentiation of HL60 cells (NBT reduction). It is filed as cell-based. As to conditions: for AC50: Homo sapiens, HL-60, 96 h, HL60 cells, culturing for 4 days, NBT-positive cells counted; for differentiation-inducing activity on HL60 cells compared with calcitriol: comparison in words. An excerpt:
The biological properties analogous to vitamin D may also be measured by means of the capacity of the product to induce the differentiation of promyelocytic leukemia cells HL60. The protocol and also the results obtained with the compounds according to the invention are described in Example 8 of the present patent application.
Calcitrol induces the differentiation of promyelocytic leukaemia cells (HL60) into monocytes/macrophages. This differentiation-inductive effect is a well-characterized marker of cellular vitamin D. One of the most important antimicrobial products of macrophages is hydrogen peroxide, which may be analysed experimentally by the reduction of NBT (Nitroblue Tetrazolium).
The method used is as follows: the HL60 cells are inoculated into 6-well plates and then treated immediately with a test compound. After culturing for 4 days, the cells are incubated with phorbol TPA ester and NBT for a short period and the differentiated cells, i.e., the ones that are positive to NBT, are counted.

For assay [1], the system named is normal human keratinocytes. As to the kind of experiment: Activity on the proliferation of human keratinocytes (BrdU incorporation). As to conditions: for pIC50: Homo sapiens, Keratinocyte, 120 h, read-out: IC50-proliferation of KHNs.
The target of a further assay is T1, human VDR receptor (Homo sapiens, UniProt P11473).
T1 construct: expressed in transfected cells; host or cells: HeLa
T1 sequence (P11473 1-427): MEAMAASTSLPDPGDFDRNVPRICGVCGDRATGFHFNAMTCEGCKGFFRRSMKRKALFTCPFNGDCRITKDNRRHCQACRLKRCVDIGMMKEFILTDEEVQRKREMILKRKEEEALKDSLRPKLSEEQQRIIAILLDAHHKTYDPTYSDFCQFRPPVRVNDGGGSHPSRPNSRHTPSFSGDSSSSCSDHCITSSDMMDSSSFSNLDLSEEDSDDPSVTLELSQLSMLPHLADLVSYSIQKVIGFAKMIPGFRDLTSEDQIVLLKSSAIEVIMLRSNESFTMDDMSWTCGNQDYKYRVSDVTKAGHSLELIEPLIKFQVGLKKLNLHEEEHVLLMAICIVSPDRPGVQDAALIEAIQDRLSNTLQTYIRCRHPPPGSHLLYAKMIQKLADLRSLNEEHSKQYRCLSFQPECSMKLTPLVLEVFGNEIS
As to the kind of experiment: VDR agonist activity, HeLa cotransfection with reporter plasmid p240Hase-CAT. As to conditions: for AC50: HeLa cells, treatment for 18 hours, CAT activity by ELISA; for VDR agonist activity compared with calcitriol: comparison in words. It is filed as cell-based. On the procedure: By way of example, the VDR agonist activity may be tested on the HeLa cell line by cotransfection of an expression vector of the human VDR receptor and of the reporter plasmid p240Hase-CAT. The agonist activity may also be characterized in this cotransfection system, by determining the dose required to achieve 50% of the maximum activity of the product (AC50).
18 hours after cotransfection, the test compound is added to the medium. After treatment for 18 hours, the CAT activity of the cell lysates is assayed by means of an ELISA test (Enzyme Linked ImmunoSorbent Assay, sold by Roche Molecular Biochemicals).

For `CCC(O)(CC)c1ccc(-c2cc(NCc3ccc(CO)c(CO)c3)ccc2C)c(C)c1` [Example 6, (4-{[4′-(1-Ethyl-1-hydroxypropyl)-6,2′-dimethylbiphenyl-3-ylamino]-methyl}-2-hydroxymethylphenyl)methanol], in the assay with HL60 cells, the half-maximal activity concentration (AC50) was found to be 147 nM and the “differentiation-inducing activity on HL60 cells compared with calcitriol” value is “less good activity compared with calcitriol”. In addition, the pIC50 in assay [1] was 6.91. The “inhibitory activity on keratinocyte proliferation compared with calcitriol” value in assay [1] (comparison in words) is “less good activity compared with calcitriol”. Besides, on human VDR receptor, the AC50 amounted to 50 nM and the “VDR agonist activity compared with calcitriol” value was “less good activity compared with calcitriol”.

With `CCc1ccc(OCc2ccc(CO)c(CO)c2)cc1-c1ccc(C(O)(CC)CC)cc1C(C)C` [Example 4, {4-[6-Ethyl-4′-(1-ethyl-1-hydroxypropyl)-2′-isopropylbiphenyl-3-yloxymethyl]-2-hydroxymethylphenyl}methanol], the AC50 in the assay with HL60 cells worked out at 27 nM; on human VDR receptor, 3.2 nM. In addition, in assay [1], the pIC50 was 7.59.

`CCc1cc(C(O)(CC)CC)ccc1-c1cc(OCc2ccc(CO)c(CO)c2)ccc1CC` [Example 2, {5-[6,2′-Diethyl-4′-(1-ethyl-1-hydroxypropyl)biphenyl-3-yloxymethyl]-2-hydroxymethylphenyl}methanol]: the AC50 with HL60 cells amounted to 15 nM; on human VDR receptor, 4.1 nM. In addition, the pIC50 in assay [1] was 7.28.

`CCCc1cc(C(O)(CC)CC)ccc1-c1cc(OCc2ccc(CO)c(CO)c2)ccc1CC` [Example 3, {4-[6-Ethyl-4′-(1-ethyl-1-hydroxypropyl)-2′-propylbiphenyl-3-yloxymethyl]-2-hydroxymethylphenyl}methanol]: the AC50 in the assay with HL60 cells came out at 11 nM; on human VDR receptor it was 2.2 nM. Further, the pIC50 in assay [1] is 7.82.

The compound `C=C1/C(=C\C=C2/CCC[C@]3(C)[C@@H]([C@H](C)CCCC(C)(C)O)CC[C@@H]23)C[C@@H](O)C[C@@H]1O` [Calcitriol, 1,25-dihydroxyvitamin D3, reference compound] had an AC50 in the assay with HL60 cells of 10.7 nM. In other words, the double-digit nanomolar range.

For `CCCc1cc(C(O)(CC)CC)ccc1-c1cc(OCc2ccc(CO)c(CO)c2)ccc1C` [Example 1, {5-[4′-(1-Ethyl-1-hydroxypropyl)-6-methyl-2′-propylbiphenyl-3-yloxy-methyl]-2-hydroxymethylphenyl}methanol], the half-maximal activity concentration (AC50) in the assay with HL60 cells turned out to be 7.6 nM; at human VDR receptor, 2.4 nM. Moreover, the pIC50 in assay [1] is 7.80.

Regarding `CCCc1cc(C(O)(CC)CC)ccc1-c1cc(CCc2ccc(CO)c(CO)c2)ccc1C` [Example 5, (4-{2-[4′-(1-Ethyl-1-hydroxypropyl)-6-methyl-2′-propylbiphenyl-3-yl]ethyl}-2-hydroxymethylphenyl)methanol], in the assay with HL60 cells, the activity was half-maximal at 1.8 nM (AC50) and the “differentiation-inducing activity on HL60 cells compared with calcitriol” value is given as “markedly superior activity”. The pIC50 in assay [1] is 8.62. The “activity on keratinocyte proliferation relative to calcitriol” value in assay [1] (fold greater than calcitriol) is listed as “more than 5 times”. Moreover, at human VDR receptor, the AC50 worked out at 0.6 nM and the “VDR agonist activity compared with calcitriol” value is on record as “superior activity”.
